In patent publication US8802720B2, “Acylamino-substituted fused cyclopentanecarboxylic acid derivatives and their use as pharmaceuticals” (SANOFI, priority 2008, dated 2014):

Molecular target: human Edg-2 receptor (LPA1 receptor) (Homo sapiens, UniProt Q92633)
Experiment: Edg-2 receptor inhibition by FLIPR calcium fluorescence measurement (LPA-mediated calcium liberation)
Assay type: cell-based
Conditions: CHO cells stably overexpressing human Edg-2 receptor; LPA 18:1 100 nM; fluo-4 fluorescence; triplicate; read-out: Inhibitory concentrations IC50 for inhibition of the Edg-2 receptor
Method: A) Determination of Edg-2 Receptor Inhibition by Fluorescence Imaging Plate Reader (FLIPR) Measurements
The inhibition of the Edg-2 receptor (LPA1 receptor) by the compounds of the invention was quantified by the inhibitory effect on the LPA-mediated calcium liberation in a cell-based calcium fluorescence assay by use of Chinese hamster ovarian (CHO) cells in which the human Edg-2 receptor was stably overexpressed (FIp-In system, Invitrogen). […] Changes in intracellular calcium were determined by fluorescence measurement with the calcium-sensitive dye fluo-4 (Invitrogen) in a fluorescence imaging plate reader (FLIPR, […]).
CHO cells stably overexpressing the human Edg-2 receptor were seeded (40.000 per well) in black clear-bottomed poly-D-lysine-coated 96 well plates (Becton Dickinson, Biocoat cellware) approximately 18-24 h prior to the experiments. Cells were grown in an incubator at 37° C., 5% carbon dioxide and 95% humidity in cell culture media based on F-12 glutamax media (Gibco, #31765) supplemented with 1% (vol/vol) penicilline/streptomycine (PAN, #P06-07100), 10% (vol/vol) fetal calf serum (FCS, PAA, #A15-151) and hygromycin B (Invitrogen, #10687-010) 300 mg/l (final concentrations).
Prior to the FLIPR experiment, cells were loaded with fluo-4 acetoxymethyl ester (fluo-4 AM, Invitrogen, #F14202) for 60 min in an incubator at 37° C., 5% carbon dioxide and 95% humidity in dye-loading buffer consisting of Hanks' Balanced Salt Solution (HBSS, Invitrogen, #14065049) supplemented with fluo-4 AM at 2 μM (all data given for final concentration), Pluronic® F-127 0.05% (vol/vol) (Invitrogen, #P-3000 MP), HEPES 20 mM (Gibco, #15630), probenecid 2.5 mM (Sigma, #P-8761) and bovine serum albumin 0.05% (BSA, Sigma, #A-6003), adjusted to pH 7.5 with sodium hydroxide. During cell loading, fluo-4 AM is cleaved by intracellular esterase resulting in trapping of the dye fluo-4 within the cells. Loading was terminated by washing of the cells in a cell washer (Tecan Power washer) three times with the buffer specified afore but without fluo-4 AM and BSA. This latter buffer was also used as the buffer in the subsequent cell fluorescence measurements.
The dye-loaded and washed cells were pre-incubated for approximately 5 min with various concentrations of the test compound added as a solution in DMSO (0.3% vol/vol maximum final concentration of DMSO), or with DMSO in the respective concentration only (positive control). Subsequent addition of LPA (18:1, 1-oleoyl-sn-glycerol 3-phosphate; 100 nM final concentration) leads to liberation of intracellular calcium from internal stores resulting in a large transient increase of the fluo-4 fluorescence signal which was monitored over approximately 3 min. The percent inhibition caused by the test compound was determined from the maximum fluorescence response after LPA addition to cells pre-incubated with the compound as compared to the maximum fluorescence response after LPA addition to cells pre-incubated with DMSO only. All fluorescence values were corrected for the baseline fluorescence values obtained with cells which were pre-incubated with DMSO only and were not treated with LPA (baseline control). All measurements were performed in triplicate. From the percent inhibitions the inhibitory concentration IC50 was determined.

human Edg-2 receptor (LPA1 receptor), sequence (Q92633 whole entry): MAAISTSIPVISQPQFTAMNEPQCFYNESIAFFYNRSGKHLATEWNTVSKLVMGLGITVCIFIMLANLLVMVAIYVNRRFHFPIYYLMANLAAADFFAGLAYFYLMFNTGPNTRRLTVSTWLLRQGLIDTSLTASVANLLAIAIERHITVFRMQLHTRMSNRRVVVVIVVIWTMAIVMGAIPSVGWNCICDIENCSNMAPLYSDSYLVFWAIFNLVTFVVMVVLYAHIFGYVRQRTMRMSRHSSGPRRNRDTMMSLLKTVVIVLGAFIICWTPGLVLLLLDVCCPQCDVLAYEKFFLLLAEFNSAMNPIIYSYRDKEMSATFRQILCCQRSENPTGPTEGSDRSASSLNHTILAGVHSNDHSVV

Row | SMILES | IC50 [nM]
1 | COc1ccc(C(=O)NC2(C(=O)O)Cc3ccccc3C2)cc1OCCC1CC1 [Example 86] | 1000 to 30000
2 | COc1ccc(C(=O)NC2(C(=O)O)Cc3ccccc3C2)cc1OCC1C[C@H]2C=C[C@@H]1C2 (stereo partly drawn) [Example 87] | 1000 to 30000
3 | COc1ccc(C(=O)NC2(C(=O)O)Cc3ccccc3C2)cc1OCc1c(C)noc1C [Example 88] | 1000 to 30000
4 | COc1ccc(C(=O)NC2(C(=O)O)Cc3ccccc3C2)cc1OCc1snnc1-c1ccccc1 [Example 89] | 1000 to 30000
5 | COc1ccc(C(=O)NC2(C(=O)O)Cc3ccccc3C2)cc1OCC1CC(c2ccccn2)=NO1 (stereo not drawn) [Example 90] | 1000 to 30000
6 | COc1ccc(C(=O)NC2(C(=O)O)Cc3cscc3C2)cc1OCCc1cccc(C)c1 [Example 98, 5-[4-Methoxy-3-(2-m-tolyl-ethoxy)-benzoylamino]-5,6-dihydro-4H-cyclopenta[c]thiophene-5-carboxylic acid] | < 100
7 | COc1ccc(C(=O)NC2(C(=O)O)Cc3ccsc3C2)cc1OCCc1cccc(C)c1 (stereo not drawn) [Example 99, 5-[4-Methoxy-3-(2-m-tolyl-ethoxy)-benzoylamino]-5,6-dihydro-4H-cyclopenta[b]thiophene-5-carboxylic acid] | < 100
8 | COc1ccc(C(=O)NC2(C(=O)O)Cc3cc(Cl)sc3C2)cc1OCCc1cccc(C)c1 (stereo not drawn) [Example 100, 2-Chloro-5-[4-methoxy-3-(2-m-tolyl-ethoxy)-benzoylamino]-5,6-dihydro-4H-cyclopenta[b]thiophene-5-carboxylic acid] | < 100
9 | CC(=O)c1sc(C(=O)NC2(C(=O)O)Cc3ccccc3C2)cc1OCCc1cccc(C)c1 [Example 102, 2-{[5-Acetyl-4-(2-m-tolyl-ethoxy)-thiophene-2-carbonyl]-amino}-indane-2-carboxylic acid] | 100 to 1000
10 | COc1cc([N+](=O)[O-])c(C(=O)NC2(C(=O)O)Cc3ccccc3C2)cc1OCCc1cccc(Cl)c1 [Example 103, 2-{5-[2-(3-Chloro-phenyl)-ethoxy]-4-methoxy-2-nitro-benzoylamino}-indane-2-carboxylic acid] | 1000 to 30000
11 | COc1cc(Br)c(C(=O)NC2(C(=O)O)Cc3ccccc3C2)cc1OCCc1cccc(Cl)c1 [Example 104, 2-{2-Bromo-5-[2-(3-chloro-phenyl)-ethoxy]-4-methoxy-benzoylamino}-indane-2-carboxylic acid] | 1000 to 30000
12 | COc1cc(Cl)c(C(=O)NC2(C(=O)O)Cc3ccccc3C2)cc1OCCc1cccc(Cl)c1 [Example 105, 2-{2-Chloro-5-[2-(3-chloro-phenyl)-ethoxy]-4-methoxy-benzoylamino}-indane-2-carboxylic acid] | 100 to 1000
13 | COc1ccc(C(=O)N(C)C2(C(=O)O)Cc3ccccc3C2)cc1OCCc1cccc(C)c1 [Example 108, 2-{[4-Methoxy-3-(2-m-tolyl-ethoxy)-benzoyl]-methyl-amino}-indane-2-carboxylic acid] | 100 to 1000
14 | COc1ccc(C(=O)NC2(C(=O)O)Cc3ccccc3C2)cc1OS(=O)(=O)c1ccccc1 [Example 109, 2-(3-Benzenesulfonyloxy-4-methoxy-benzoylamino)-indane-2-carboxylic acid] | 1000 to 30000
15 | COc1ccc(C(=O)NC2(C(=O)O)Cc3ccccc3C2)cc1OS(=O)(=O)c1ccc(C)cc1 [Example 110] | 1000 to 30000
16 | COc1ccc(C(=O)NC2(C(=O)O)Cc3ccccc3C2)cc1OS(=O)(=O)c1ccccc1C [Example 112] | 1000 to 30000
17 | COc1ccc(C(=O)NC2(C(=O)O)Cc3ccccc3C2)cc1NC(=O)Cc1ccccc1 [Example 117, 2-(4-Methoxy-3-phenylacetylamino-benzoylamino)-indane-2-carboxylic acid] | 100 to 1000
18 | COc1ccc(C(=O)NC2(C(=O)O)Cc3ccccc3C2)cc1NC(=O)c1cccc(F)c1 [Example 120, 2-[3-[3-fluoro-benzoylamino)-4-methoxy-benzoylamino)-indane-2-carboxylic acid] | 1000 to 30000
19 | COc1ccc(C(=O)NC2(C(=O)O)Cc3ccccc3C2)cc1NCc1ccc(F)cc1 [Example 121, 2-[3-(4-Fluoro-benzylamino)-4-methoxy-benzoylamino]-indane-2-carboxylic acid] | 1000 to 30000

Other lines, results leading:

Row | IC50 [nM] | SMILES
20 | < 100 | COc1ccc(C(=O)NC2(C(=O)O)Cc3ccccc3C2)cc1OCCc1cccc(C#N)c1 [Example 94, 2-{3-[2-(3-Cyano-phenyl)-ethoxy]-4-methoxy-benzoylamino}-indane-2-carboxylic acid]
21 | 1000 to 30000 | COc1ccc(C(=O)NC2(C(=O)O)Cc3ccccc3C2)cc1OCCc1cccc(C(N)=O)c1 [Example 95, 2-{3-[2-(3-Carbamoyl-phenyl)-ethoxy]-4-methoxy-benzoylamino}-indane-2-carboxylic acid]
22 | 1000 to 30000 | COc1ccc(C(=O)NC2(C(=O)O)Cc3ccccc3C2)cc1OCCc1cccc(C(=O)O)c1 [Example 96, 2-{3-[2-(3-Carboxy-phenyl)-ethoxy]-4-methoxy-benzoylamino}-indane-2-carboxylic acid]
23 | 1000 to 30000 | COc1ccc(C(=O)NC2(C(=O)O)Cc3cccnc3C2)cc1OCCc1cccc(C)c1 (stereo not drawn) [Example 101, 6-[4-Methoxy-3-(2-m-tolyl-ethoxy)-benzoylamino]-6,7-dihydro-5H-[1]pyrindine-6-carboxylic acid]
24 | < 100 | COc1c(F)cc(C(=O)NC2(C(=O)O)Cc3ccccc3C2)cc1OCCc1cccc(C)c1 [Example 106, 2-[3-Fluoro-4-methoxy-5-(2-m-tolyl-ethoxy)-benzoylamino]-indane-2-carboxylic acid]
25 | 1000 to 30000 | COc1c(OCCc2cccc(C)c2)cc(C(=O)NC2(C(=O)O)Cc3ccccc3C2)cc1[N+](=O)[O-] [Example 107, 2-[4-Methoxy-3-nitro-5-(2-m-tolyl-ethoxy)-benzoylamino]-indane-2-carboxylic acid]
26 | 1000 to 30000 | COc1ccc(C(=O)NC2(C(=O)O)Cc3ccccc3C2)cc1OS(=O)(=O)c1cccc(C)c1 [Example 111, 2-[3-(toluene-3-sulfonyloxy)-4-methoxy-benzoylamino]-indane-2-carboxylic acid]
27 | 1000 to 30000 | COc1ccc(C(=O)NC2(C(=O)O)Cc3ccccc3C2)cc1C(=O)COc1cccc(C)c1 [Example 113, 2-[4-Methoxy-3-(2-m-tolyloxy-acetyl)-benzoylamino]-indane-2-carboxylic acid]
28 | 1000 to 30000 | COc1ccc(C(=O)NC2(C(=O)O)Cc3ccccc3C2)cc1C(O)COc1cccc(C)c1 (stereo not drawn) [Example 114, 2-[3-(1-Hydroxy-2-m-tolyloxy-ethyl)-4-methoxy-benzoylamino]-indane-2-carboxylic acid]
29 | 1000 to 30000 | COc1ccc(C(=O)NC2(C(=O)O)Cc3ccccc3C2)cc1CCOc1cccc(C)c1 [Example 115, 2-[4-Methoxy-3-(2-m-tolyloxy-ethyl)-benzoylamino]-indane-2-carboxylic acid]
30 | < 100 | COc1ccc(C(=O)NC2(C(=O)O)Cc3ccccc3C2)cc1CCCc1cccc(C)c1 [Example 116, 2-[4-Methoxy-3-(3-m-tolyl-propyl)-benzoylamino]-indane-2-carboxylic acid]
31 | 1000 to 30000 | COc1ccc(C(=O)NC2(C(=O)O)Cc3ccccc3C2)cc1NC(=O)Cc1cccc(Br)c1 [Example 118]
32 | 1000 to 30000 | COc1ccc(C(=O)NC2(C(=O)O)Cc3ccccc3C2)cc1NC(=O)Cc1cccc(Cl)c1 [Example 119]
33 | 100 to 1000 | COc1ccc(C(=O)NC2(C(=O)O)Cc3ccccc3C2)cc1NCCc1ccccc1 [Example 122, 2-[3-[2-phenyl-ethylamino)-4-methoxy-benzoylamino)-indane-2-carboxylic acid]
